From patent publication US20240050428A1 (Cullgen (Shanghai), Inc., priority 2020, published 2024)
pIC50: −log10 of the molar value. Like-named read-outs stand apart in the source and are kept apart here.

How the values were obtained:
MV4;11 cells = experiment: Cell viability assay (CellTiter-Glo) in MV4;11 cells, alone or with gilteritinib; assay type: cell-based; conditions: Homo sapiens, MV4-11, 72 h, MV4;11 cells, three days, CellTiter-Glo, read-out: MV4
MOLM-13 cells = experiment: Cell viability assay (CellTiter-Glo) in MOLM-13 cells, alone or with gilteritinib; assay type: cell-based; conditions: Homo sapiens, MOLM-13, 72 h, MOLM-13 cells, three days, CellTiter-Glo
[1] = compound alone (without gilteritinib), 11 IC50
[2] = with gilteritinib 10 nM, 11 IC50 gilteritinib
[3] = compound alone (without gilteritinib), read-out: MOLM-13 IC50
[4] = with gilteritinib 20 nM, read-out: MOLM-13 IC50 gilteritinib

Row | SMILES | pIC50 (MV4;11 cells; [1]) | pIC50 (MV4;11 cells; [2]) | pIC50 (MOLM-13 cells; [3]) | pIC50 (MOLM-13 cells; [4])
1 | O=C1CCC(N2C(=O)c3ccc(NC[C@H]4C[C@H](n5cc(-c6cc(Cl)ccn6)c(C6CC6)n5)C4)cc3C2=O)C(=O)N1 (stereo partly drawn) [GS-264, 5-(((trans-3-(4-(4-Chloropyridin-2-yl)-3-cyclopropyl-1H-pyrazol-1-yl)cyclobutyl)methyl)amino)-2-(2,6-dioxopiperidin-3-yl)isoindoline-1,3-dione] | 7.00 to 8.00 | > 8.00 | 7.00 to 8.00 | > 8.00
2 | O=C1CCC(N2C(=O)c3ccc(NC[C@H]4C[C@H](n5cc(-c6ccncc6)c(C6CC6)n5)C4)cc3C2=O)C(=O)N1 (stereo partly drawn) [GS-265, 5-(((trans-3-(3-Cyclopropyl-4-(pyridin-4-yl)-1H-pyrazol-1-yl)cyclobutyl)methyl)amino)-2-(2,6-dioxopiperidin-3-yl)isoindoline-1,3-dione] | < 6.00 | 6.00 to 7.00 | < 6.00 | 6.00 to 7.00
3 | O=C1CCC(N2C(=O)c3ccc(NC[C@H]4C[C@H](n5cc(-c6cnc7c(N8CCOCC8)cccc7n6)c(C6CC6)n5)C4)cc3C2=O)C(=O)N1 (stereo partly drawn) [GS-266, 5-(((trans-3-(3-Cyclopropyl-4-(5-morpholinoquinoxalin-2-yl)-1H-pyrazol-1-yl)cyclobutyl)methyl)amino)-2-(2,6-dioxopiperidin-3-yl)isoindoline-1,3-dione] | > 8.00 | > 8.00 | > 8.00 | > 8.00
4 | CN1CCN(c2cccc3nc(-c4cn([C@H]5C[C@H](CNc6ccc7c(c6)C(=O)N(C6CCC(=O)NC6=O)C7=O)C5)nc4C4CC4)cnc23)CC1 (stereo partly drawn) [GS-267, 5-(((trans-3-(3-Cyclopropyl-4-(5-(4-methylpiperazin-1-yl)quinoxalin-2-yl)-1H-pyrazol-1-yl)cyclobutyl)methyl)amino)-2-(2,6-dioxopiperidin-3-yl)isoindoline-1,3-dione] | > 8.00 | > 8.00 | > 8.00 | > 8.00
5 | O=C1CCC(N2C(=O)c3ccc(NC[C@H]4C[C@H](n5cc(-c6cccnc6)c(C6CC6)n5)C4)cc3C2=O)C(=O)N1 (stereo partly drawn) [GS-268, 5-(((trans-3-(3-Cyclopropyl-4-(pyridin-3-yl)-1H-pyrazol-1-yl)cyclobutyl)methyl)amino)-2-(2,6-dioxopiperidin-3-yl)isoindoline-1,3-dione] | 6.00 to 7.00 | 7.00 to 8.00 | 6.00 to 7.00 | 7.00 to 8.00
6 | CN(C)c1ccc(-c2cn([C@H]3C[C@H](CNc4ccc5c(c4)C(=O)N(C4CCC(=O)NC4=O)C5=O)C3)nc2C2CC2)nc1 (stereo partly drawn) [GS-276, 5-(((trans-3-(3-Cyclopropyl-4-(5-(dimethylamino)pyridin-2-yl)-1H-pyrazol-1-yl)cyclobutyl)methyl)amino)-2-(2,6-dioxopiperidin-3-yl)isoindoline-1,3-dione] | 7.00 to 8.00 | > 8.00 | 6.00 to 7.00 | 7.00 to 8.00
7 | O=C1CCC(N2C(=O)c3ccc(NC[C@H]4C[C@H](n5cc(-c6ncccc6C(F)(F)F)c(C6CC6)n5)C4)cc3C2=O)C(=O)N1 (stereo partly drawn) [GS-277, 5-(((trans-3-(3-Cyclopropyl-4-(3-(trifluoromethyl)pyridin-2-yl)-1H-pyrazol-1-yl)cyclobutyl)methyl)amino)-2-(2,6-dioxopiperidin-3-yl)isoindoline-1,3-dione] | > 8.00 | > 8.00 | > 8.00 | > 8.00

The next lines start with the values.

Row | pIC50 (MV4;11 cells; [1]) | pIC50 (MV4;11 cells; [2]) | pIC50 (MOLM-13 cells; [3]) | pIC50 (MOLM-13 cells; [4]) | SMILES
8 | < 6.00 | 6.00 to 7.00 | < 6.00 | < 6.00 | O=C1CCC(N2C(=O)c3ccc(NC[C@H]4C[C@H](n5cc(-c6cccc(NC7CC(O)C7)n6)c(C6CC6)n5)C4)cc3C2=O)C(=O)N1 (stereo partly drawn) [GS-269, 5-(((trans-3-(3-Cyclopropyl-4-(6-((3-hydroxycyclobutyl)amino)pyridin-2-yl)-1H-pyrazol-1-yl)cyclobutyl)methyl)amino)-2-(2,6-dioxopiperidin-3-yl)isoindoline-1,3-dione]
9 | < 6.00 | < 6.00 | < 6.00 | < 6.00 | O=C1CCC(N2C(=O)c3ccc(NC[C@H]4C[C@H](n5cc(-c6cccc(=O)[nH]6)c(C6CC6)n5)C4)cc3C2=O)C(=O)N1 (stereo partly drawn) [GS-270, 5-(((trans-3-(3-Cyclopropyl-4-(6-oxo-1,6-dihydropyridin-2-yl)-1H-pyrazol-1-yl)cyclobutyl)methyl)amino)-2-(2,6-dioxopiperidin-3-yl)isoindoline-1,3-dione]
10 | 7.00 to 8.00 | 7.00 to 8.00 | 6.00 to 7.00 | 7.00 to 8.00 | O=C(Cn1cc(-c2cnc3ccccc3n2)c(C2CC2)n1)NCc1ccc2c(c1)C(=O)N(C1CCC(=O)NC1=O)C2=O (stereo not drawn) [GS-271, 2-(3-Cyclopropyl-4-(quinoxalin-2-yl)-1H-pyrazol-1-yl)-N-((2-(2,6-dioxopiperidin-3-yl)-1,3-dioxoisoindolin-5-yl)methyl)acetamide]
11 | > 8.00 | > 8.00 | 7.00 to 8.00 | > 8.00 | O=C1CCC(N2C(=O)c3ccc(NC[C@H]4C[C@H](n5cc(-c6ncccc6Cl)c(C6CC6)n5)C4)cc3C2=O)C(=O)N1 (stereo partly drawn) [GS-272, 5-(((trans-3-(4-(3-Chloropyridin-2-yl)-3-cyclopropyl-1H-pyrazol-1-yl)cyclobutyl)methyl)amino)-2-(2,6-dioxopiperidin-3-yl)isoindoline-1,3-dione]
12 | 6.00 to 7.00 | 7.00 to 8.00 | < 6.00 | 6.00 to 7.00 | Nc1cccc(-c2cn([C@H]3C[C@H](CNc4ccc5c(c4)C(=O)N(C4CCC(=O)NC4=O)C5=O)C3)nc2C2CC2)n1 (stereo partly drawn) [GS-273, 5-(((trans-3-(4-(6-aminopyridin-2-yl)-3-cyclopropyl-1H-pyrazol-1-yl)cyclobutyl)methyl)amino)-2-(2,6-dioxopiperidin-3-yl)isoindoline-1,3-dione]
13 | < 6.00 | < 6.00 | < 6.00 | < 6.00 | O=C1CCC(N2C(=O)c3ccc(NC[C@H]4C[C@H](n5cc(-c6cccc(NC7CNC7)n6)c(C6CC6)n5)C4)cc3C2=O)C(=O)N1 (stereo partly drawn) [GS-274, 5-(((trans-3-(4-(6-(Azetidin-3-ylamino)pyridin-2-yl)-3-cyclopropyl-1H-pyrazol-1-yl)cyclobutyl)methyl)amino)-2-(2,6-dioxopiperidin-3-yl)isoindoline-1,3-dione]
14 | 7.00 to 8.00 | 7.00 to 8.00 | 6.00 to 7.00 | 7.00 to 8.00 | COc1ccc(-c2cn([C@H]3C[C@H](CNc4ccc5c(c4)C(=O)N(C4CCC(=O)NC4=O)C5=O)C3)nc2C2CC2)nc1 (stereo partly drawn) [GS-275, 5-(((trans-3-(3-Cyclopropyl-4-(5-methoxypyridin-2-yl)-1H-pyrazol-1-yl)cyclobutyl)methyl)amino)-2-(2,6-dioxopiperidin-3-yl)isoindoline-1,3-dione]
15 | > 8.00 | > 8.00 | 7.00 to 8.00 | > 8.00 | O=C1CCC(N2C(=O)c3ccc(NC[C@H]4C[C@H](n5cc(-c6nccc7[nH]ccc67)c(C6CC6)n5)C4)cc3C2=O)C(=O)N1 (stereo partly drawn) [GS-278, 5-(((trans-3-(3-Cyclopropyl-4-(1H-pyrrolo[3,2-c]pyridin-4-yl)-1H-pyrazol-1-yl)cyclobutyl)methyl)amino)-2-(2,6-dioxopiperidin-3-yl)isoindoline-1,3-dione]
